Several values for one entry are separate records, joined by “and”; a condition that tells them apart may be missing. Equal values may be shown once.
How the values were obtained:
Spirulina platensis = assay type: cell-based
Selenastrum capricomutum = assay: Delayed fluorescence Curve / VCurve values with green algae photosynthetic sample; assay type: cell-based; settings: simazine 25, 50, 100 ppb, dichlorophenol 1, 5, 10 ppm, 0.1 to 50 seconds after excitation; for Curve values variation with an increase in concentration: FIG. 37; for VCurve values variation with an increase in concentration: FIG. 38
Description: Meanwhile, if characteristic points are not present in a delayed fluorescence decay curve, the Curve values, determined for the entirety or a predetermined range of the decay curve, may be used as comparison values for carrying out the assay. Here, the Curve value at each measurement point n in a temporal variation of the light amount of delayed fluorescence is determined by: (amount of light emitted from the test measurement solution at measurement point n)−(amount of light emitted from the standard measurement solution at measurement point n).
In such a case, it is effective to use VCurve values, each being standardized by being determined as a ratio of a Curve value, which is a value obtained by determining a difference of the temporal variations of the light amount of delayed fluorescence acquired for the test measurement solution and the standard measurement solution, with respect to a light amount of delayed fluorescence acquired for the test measurement solution or the standard measurement solution (preferably, a light amount of delayed fluorescence acquired for the standard measurement solution), as the comparison values. The evaluation of variations within different time ranges is thereby facilitated. Here, in a temporal variation of the light amount of delayed fluorescence, the VCurve value at each measurement point n is determined as (Curve value at measurement point n)/(amount of light emitted from the standard measurement solution at measurement point n)×100.
FIG. 36 is a diagram of an example of a method of computing the Curve values when no characteristics points exist in a delayed fluorescence decay curve. Here, a delayed fluorescence decay curve of a standard measurement solution using Selenastrum capricomutum, which is a green algae and has been grown by a general method at a light intensity of 50 μmol/m^2/s under a white fluorescence lamp, as the photosynthetic sample is shown. Preparation of the sample is carried out in the same manner as in the case of Spirulina platensis. […] In such a case, assay using the Curve values is effective because assay that makes note of characteristic points cannot be made.
Specifically, graph (a) of FIG. 37 is a graph of the Curve values computed from the measurement results of test measurement solutions exposed to simazine, which is a herbicide, at concentrations of 25, 50, and 100 ppb and the measurement results of the standard measurement solution for a time range of 0.1 seconds to 50 seconds after excitation. Graph (b) is a graph of the Curve values computed from the measurement results of test measurement solutions exposed to dichlorophenol at concentrations of 1, 5, and 10 ppm and the measurement results of the standard measurement solution for a time range of 0.1 seconds to 50 seconds after excitation. […]

Row | Compound | Curve value variation as the concentration becomes higher (Spirulina platensis) | VCP1 value (Spirulina platensis) | VCP1 value after the activated carbon adsorption treatment (Spirulina platensis) | VCP2 value (Spirulina platensis) | VTP2 value (Spirulina platensis) | variation of the VCP1 value with respect to concentration (Spirulina platensis) | variation of the VCP2 value with respect to concentration (Spirulina platensis) | variation of the VTP2 value with respect to concentration (Spirulina platensis) | Curve values variation with an increase in concentration (Selenastrum capricomutum) | VCurve values variation with an increase in concentration (Selenastrum capricomutum)
1 | CN(C)C(=O)Nc1ccc(Cl)c(Cl)c1 [DCMU, DCMU (diuron)] | varies in positive direction at around 1 second after excitation and then varies in the negative direction at around 3 to 5 seconds after excitation | 116.0 and 125.6 and 120.9 | 96.3 | 88.0 and 84.6 | 100.0 and 101.5 | increases | decreases | hardly changes | – | –
2 | [Hg+2] [Hg2+, inorganic mercury] | varies in the positive direction at around 1 to 2 seconds after excitation | – | – | – | – | does not change much with an increase in the inorganic mercury concentration at low inorganic mercury concentration, at high inorganic mercury concentration, the VCP1 value increases | decreases | increases | – | –
3 | CCNc1nc(Cl)nc(NC(C)C)n1 [atrazine] | varies in the positive direction at around 1 second after excitation and then varies in the negative direction at around 3 to 4 seconds after excitation | 106.4 | – | 90.0 | 100.0 | increases | decreases | decreases slightly | – | –
4 | C[n+]1ccc(-c2cc[n+](C)cc2)cc1 [paraquat] | varies in the negative direction at around 1 to 4 seconds after excitation | – | – | – | – | decreases slightly | decrease | decrease | – | –
5 | CCNc1nc(Cl)nc(NCC)n1 [simazine] | – | – | – | – | – | – | – | – | vary in the positive direction near 0.1 seconds after excitation | vary in the positive direction near 0.1 to 0.3 seconds after excitation
6 | dichlorophenol | – | – | – | – | – | – | – | – | vary in the negative direction near 0.2 to 10 seconds after excitation | vary in the negative direction widely over the entire range
